Values after ≈ are worked out from the molar mass of the structure shown.
Experiments:
humanized FOLR1 IgG1 = assay: Antibody fragmentation in HCCF with 20% (v/v) microfluidized CHO cells (non-reducing SDS-Protein Lab Chip); format: biochemical; details: 1 mM of each additive, 6 h; no additive control 78%
Protocol: The microfluidization was carried out using 3 liter CHO cells from a bioreactor, which were resuspended into 300 ml PBS, processed through microfluidizer, centrifuged and filtered through 0.22 micrometer membrane. […] The samples were quenched with 5 mM N-ethylmaleimide (NEM), purified using immobilized Protein A, and subjected to non-reducing SDS-Protein Lab Chip electrophoretic analysis.

physchem = details: thermodynamic from solid
[1] = 50 mM potassium phosphate buffer, pH adjusted to 7.1
[2] = tested on: recombinant humanized IgG1 antibody; assay: Antibody fragmentation in HCCF kept under nitrogen, air or oxygen with or without CDME (non-reducing SDS-Protein Lab Chip); format: biochemical
Protocol: A CHO cell culture producing recombinant humanized IgG1 antibody was subjected to centrifugation and the resulting harvest cell culture fluid (HCCF) was frozen at −80° C. […] At various time points, samples were quenched with N-ethylmaleimide (NEM), purified using immobilized Protein A, and analyzed for fragments using non-reducing SDS-Protein Lab Chip electrophoresis. […] In contrast, the sample overlayed with air became less fragmented with time, reaching a plateau of about 25% fragmentation at 20 hours.

[3] = tested on: Humanized anti-folate receptor 1 (FOLR1) IgG1; assay: Thiol per antibody (DTNB/Ellman's) after incubating immobilized antibody with damaged CHO cell supernatant; format: biochemical; details: 0.05 mM agent, 2.2 hours; antibody eluted from Protein A bead, neutralized to pH 7
Protocol: For all of the examples described below, cell damage was simulated by multiple freeze-thaw cycles of cells, by addition of RIPA buffer (50 mM Tris-HCl, pH 7.4, 1% NP-40, 0.5% sodium deoxycholate, 0.1% sodium dodecylsulfate), or by using microfluidizer. This damaged cell supernatant or lysate was then incubated with a buffered solution containing antibody with or without the anti-reduction agent being tested, following which the extent of the antibody-disulfide reduction was measured using Ellman's assay for thiol (P. W. Riddles, R. L. Blakeley, and B. Zerner, Methods Enzymol., 91, 49-60, 1983) or by non-reducing SDS protein LabChip analysis. The total thiol level present in the mixture of damaged cell supernatant/lysate was measured initially. […]
The concentration of thiol in the suspension of damaged CHO cells was measured as 4 mM using DTNB ((5,5′-dithiobis(2-nitrobenzoic acid); Ellman's reagent). Humanized anti-folate receptor 1 (FOLR1) IgG1 (1 mg) was immobilized on 0.05 ml of Protein A bead (RepliGen) and then treated with pre-mixed 0.5 ml PBS and 0.1 ml damaged CHO cell supernatant. The concentration of thiol in this mixture was 0.67 mM. […]

O=C1c2ccccc2C(=O)c2cc(S(=O)(=O)O)ccc21 [AQS, anthraquinone-2-sulfonic acid]
fragmentation compared to no additive control (humanized FOLR1 IgG1): much lower fragmentations

CCOC(=O)[C@@H](N)CSSC[C@H](N)C(=O)OCC [CDEE, L-cystine diethyl ester]
solubility (physchem; pH 7, aqueous buffer): > 100 mM
solubility (physchem; water): ≥ 1000 mM

COC(=O)[C@@H](N)CSSC[C@H](N)C(=O)OC [CDME, L-cystine dimethyl ester]
concentration dissolved in buffer [1]: ≥ 5000 µM
fragmentation compared to no additive control (humanized FOLR1 IgG1): much lower fragmentations
time up to which the antibody was protected from reduction ([2]; 1 mM CDME with nitrogen): up to 20 hours
time up to which the antibody was protected from reduction ([2]; 2 mM CDME with nitrogen): ≤ 45 h
fragmentation with air overlay plus CDME versus air alone ([2]; ~1 mM CDME with air overlay, up to 72 hours): lowered the fragmentation further

Cl.Cl.N[C@@H](CSSC[C@H](N)C(=O)O)C(=O)O [L-cystine dihydrochloride, reference compound]
concentration dissolved in buffer [1]: less than 5 mM

N[C@@H](CSSC[C@H](N)C(=O)O)C(=O)O [L-cystine, reference compound]
solubility (physchem; water): ~0.5 mM (≈ 0.12 mg/mL)

CN(C)c1ccc2nc3ccc(N(C)C)cc3[s+]c2c1 [methylene blue, Methylene blue]
thiol per antibody of eluted, neutralized antibody [3]: 0.002 thiol per antibody

O=O [oxygen]
protection against fragmentation ([2]; sparging with oxygen at various percentages of dissolved O2): showed protection against fragmentation

— patent publication US20170002393A1, “COMPOSITIONS AND METHODS FOR ANTIBODY PRODUCTION” (IMMUNOGEN, INC., priority 2013, published 2017)
